Laboratory results from US20090036469A1, “2,6-SUBSTITUTED-4-MONOSUBSTITUTED AMINO-PYRIMIDINE AS PROSTAGLANDIN D2 RECEPTOR ANTAGONISTS” (SANOFI-AVENTIS, priority 2006, published 2009).
Structures can show the parent of a compound that is named as a salt.

Target: T1, DP receptor (Homo sapiens, UniProt Q13258)
T1 construct: the human cell line LS174T, which expresses the endogenous DP receptor; endogenous in cells; host or cells: LS174T human cell line
T1 sequence (Q13258 1-359): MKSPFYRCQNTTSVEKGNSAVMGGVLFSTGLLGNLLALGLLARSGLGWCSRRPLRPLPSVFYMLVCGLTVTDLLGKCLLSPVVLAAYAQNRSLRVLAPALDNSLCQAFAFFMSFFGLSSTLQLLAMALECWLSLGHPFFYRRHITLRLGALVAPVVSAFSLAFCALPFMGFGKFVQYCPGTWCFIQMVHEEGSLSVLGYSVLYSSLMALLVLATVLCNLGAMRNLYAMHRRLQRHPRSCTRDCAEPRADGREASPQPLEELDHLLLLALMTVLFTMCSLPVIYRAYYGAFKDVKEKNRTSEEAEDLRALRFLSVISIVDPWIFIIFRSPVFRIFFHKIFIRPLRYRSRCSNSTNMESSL
Experiment: SPA cAMP assay in human LS174 T cells (human DP functional assay)
Type: cell-based
Conditions: concentration of the compound that produces 50% inhibition in the SPA cAMP assay in human LS174 T cells; PGD2 15 nM final concentration
Description: As used in the examples and preparations that follow, as well as the rest of the application, the terms used therein shall have the meanings indicated: “kg” refers to kilograms, “g” refers to grams, “mg” refers to milligrams, “μg” refers to micrograms, “mol” refers to moles, “mmol” refers to millimoles, “M” refers to molar, “mM” refers to millimolar, “μM” refers to micromolar, “nM” refers to nanomolar, “L” refers to liters, “mL” or “ml” refers to milliliters, “μL” refers to microliters, “° C.” refers to degrees Celsius, “mp” or “m.p.” refers to melting point, “bp” or “b.p.” refers to boiling point, “mm of Hg” refers to pressure in millimeters of mercury, “cm” refers to centimeters, “nm” refers to nanometers, “abs.” refers to absolute, “conc.” refers to concentrated, “c” refers to concentration in g/mL, “rt” refers to room temperature, “TLC” refers to thin layer chromatography, “HPLC” refers to high performance liquid chromatography, “i.p.” refers to intraperitoneally, “i.v.” refers to intravenously, “s”=singlet, “d”=doublet; “t”=triplet; “q”=quartet; “m”=multiplet, “dd”=doublet of doublets; “br”=broad, “LC”=liquid chromatograph, “MS”=mass spectrograph, “ESI/MS”=electrospray ionization/mass spectrograph, “RT”=retention time, “M”=molecular ion, “PSI”=pounds per square inch, “DMSO”=dimethyl sulfoxide, “DMF”=N,N-dimethylformamide, “CDI”=1,1′-carbonyldiimidazole, “DCM” or “CH2Cl2”=dichloromethane, “HCl”=hydrochloric acid, “SPA”=Scintillation Proximity Assay, “ATTC”=American Type Culture Collection, “FBS”=Foetal Bovine Serum, “MEM”=Minimal Essential Medium, “CPM”=Counts Per Minute, “EtOAc”=ethyl acetate, “PBS”=Phosphate Buffered Saline, “TMD”=transmembrane domain, “IBMX”=3-isobutyl-1-methylxanthine, “cAMP”=cyclic adenosine monophosphate, “IUPAC”=International Union of Pure and Applied Chemistry, “MHz”=megahertz, “PEG”=polyethylene glycol, “MeOH”=methanol, “N”=normality, “THF”=tetrahydrofuran, “h”=hours, “min”=minute(s), “MeNH2”=methyl amine, “N2”=nitrogen gas, “O.D.”=outer diameter, “MeCN” or “CH3CN”=acetonitrile, “Et2O”=ethyl ether, “Prep LC”=preparatory “flash” liquid chromatography, “SPE”=solid phase extraction, “K2CO3”=potassium carbonate, “Na2CO3”=sodium carbonate, “pmol”=picomolar, “heptane”=n-heptane, “HMBA-AM” resin=4-hydroxymethylbenzoic acid amino methyl resin, “PdCl2(dppf)2”=1,1′-bis(diphenylphosphino)ferrocene-palladium (II) dichloride DCM complex, “˜”=approximately, and “IC50”=concentration of the compound that produces 50% inhibition in the SPA cAMP assay in human LS174 T cells.
The inhibitory effects of the compounds according to the invention are assessed in a human DP functional assay. A cAMP assay is employed using the human cell line LS174T, which expresses the endogenous DP receptor. The protocol is similar to that described previously (Wright D H, Ford-Hutchinson A W, Chadee K, Metters K M, The human prostanoid DP receptor stimulates mucin secretion in LS174T cells, Br J Pharmacol. 131(8):1537-45 (2000)).
Protocol for SPA cAMP Assay in Human LS174 T Cells
Add 50 μL of […] IBMX into 100 mL PBS to make a final concentration of 100 μM and sonicate at 30° C. for 20 minutes.
Dissolve 1 mg PGD2 (FW, 352.5) in 284 μL DMSO to make 10 mM stock solution and store at […]. Before each assay, it is freshly prepared. Add 3 μL of 10 mM stock solution to 20 mL DMSO, mix it thoroughly, and transfer 10 mL to 40 mL PBS.
Compound dilution is carried out in Biomex 2000 (Beckman) using Method 1_cAMP DP 11 points.
5 μL of each compound from the 10 mM stock compound plates is transferred to the wells of a 96-well plate respectively as below.
Fill the plate with 45 μL of DMSO except column 7 is filled with 28 μL DMSO. Pipette column 1 thoroughly, and transfer 12 μL into column 7 parallel. Perform 1:10 serial dilution from column 1 to column 6 and from column 7 to column 11 by transfer 5 μL to 45 μL DMSO to make following concentrations:
Fill a new 96-well plate with 247.5 μL of compound dilution buffer. […]

SMILES | IC50
COc1nc(NCCc2ccc(Cl)cc2Cl)cc(N2CCCC(N)C2)n1 (stereo not shown) [Example 4, [6-(3-Amino-piperidin-1-yl)-2-methoxy-pyrimidin-4-yl]-[2-(2,4-dichloro-phenyl)-ethyl]-amine] | 985 nM
COc1nc(NCCc2ccc(Cl)cc2Cl)cc(N2CCCC(C(=O)NS(=O)(=O)N(C)C)C2)n1 (stereo not shown) [Example 11(h), N,N-Dimethylamide-2-sulfonic acid 1-{6-[2-(2,4-dichloro-phenyl)-ethylamino]-2-methoxy-pyrimidin-4-yl}-piperidine-3-carboxamide] | 14 nM
COc1nc(NCCc2ccc(Cl)cc2Cl)cc(-c2cccc(C(C)(C)C(=O)N3CCSCC3)c2)n1 [Example 7(c), 2-(3-{6-[2-(2,4-Dichloro-phenyl)-ethylamino]-2-methoxy-pyrimidin-4-yl}-phenyl)-2-methyl-1-thiomorpholin-4-yl-propan-1-one] | 383 nM
COc1nc(NCCc2ccc(Cl)cc2Cl)cc(N2CCC(NC(C)=O)CC2)n1 [Example 5(b), N-(1-{6-[2-(2,4-Dichloro-phenyl)-ethylamino]-2-methoxy-pyrimidin-4-yl}-piperidin-4-yl)-acetamide] | 26 nM
COc1nc(NCCc2ccc(Cl)cc2Cl)cc(N2CCC(C(=O)O)C2)n1 (stereo not shown) [Example 1] | 9 nM
COc1nc(NCCc2ccc(OC(F)(F)F)cc2)cc(N2CCCC(C(=O)O)C2)n1 (stereo not shown) [Example 9, 1-{2-Methoxy-6-[2-(4-trifluoromethoxy-phenyl)-ethylamino]-pyrimidin-4-yl}-piperidine-3-carboxylic acid] | 9 nM
COc1nc(NCCc2ccc(Cl)cc2Cl)cc(-c2cc(C(C)(C)O)cc(C(C)(C)O)c2)n1 [Example 3, 2-[3-{6-[2-(2,4-Dichloro-phenyl)-ethylamino]-2-methoxy-pyrimidin-4-yl}-5-(1-hydroxy-1-methyl-ethyl)-phenyl]-propan-2-ol] | 730 nM
COc1nc(NCCc2ccc(Cl)cc2Cl)cc(N2CCCC(CC(=O)O)C2)n1 (stereo not shown) [Example 8, (1-{6-[2-(2,4-Dichloro-phenyl)-ethylamino]-2-methoxy-pyrimidin-4-yl}-piperidin-3-yl)-acetic acid] | 0.5 nM
COc1nc(NCCc2ccc(Cl)cc2Cl)cc(-c2cccc(C(C)(C)C(=O)NS(=O)(=O)C(C)(C)C)c2)n1 [Example 7(a), 2-Methyl-propane-2-sulfonic acid [2-(3-{6-[2-(2,4-dichloro-phenyl)-ethylamino]-2-methoxy-pyrimidin-4-yl}-phenyl)-2-methyl-propionyl]-amide] | 2 nM

The remaining molecules from weak to strong by IC50, led by results:

IC50 | SMILES
22 nM | COc1nc(NCCc2ccc(OC(F)(F)F)cc2)cc(N2CCCC(C(=O)NS(C)(=O)=O)C2)n1 (stereo not shown) [Example 10, N-(1-{2-Methoxy-6-[2-(4-trifluoromethoxy-phenyl)-ethylamino]-pyrimidin-4-yl}-piperidine-3-carbonyl)-methanesulfonamide]
18 nM | COc1nc(NCCc2ccc(Cl)cc2Cl)cc(N2CCCC(C(=O)NS(=O)(=O)C(F)(F)F)C2)n1 (stereo not shown) [Example 11(d), N-(1-{6-[2-(2,4-Dichloro-phenyl)-ethylamino]-2-methoxy-pyrimidin-4-yl}-piperidine-3-carbonyl)-C,C,C-trifluoro-methanesulfonamide]
4.4 nM | COc1nc(NCCc2ccc(Cl)cc2Cl)cc(N2CCCC(C(=O)Nc3nnn[nH]3)C2)n1 (stereo not shown) [Example 11(e), 1-{6-[2-(2,4-Dichloro-phenyl)-ethylamino]-2-methoxy-pyrimidin-4-yl}-piperidine-3-carboxylic acid (1H-tetrazol-5-yl)-amide]
2 nM | COc1nc(NCCc2ccc(Cl)cc2Cl)cc(-c2ccc3c(c2)CC(C(=O)O)O3)n1 (stereo not shown) [Example 13, 5-{6-[2-(2,4-Dichloro-phenyl)-ethylamino]-2-methoxy-pyrimidin-4-yl}-2,3-dihydro-benzofuran-2-carboxylic acid hydrochloride]
2 nM | COc1nc(NCCc2ccc(OC(F)(F)F)cc2)cc(-c2ccc(C(=O)O)s2)n1 [Example 12, 5-{2-Methoxy-6-[2-(4-trifluoromethoxy-phenyl)-ethylamino]-pyrimidin-4-yl}-thiophene-2-carboxylic acid]
2 nM | COc1nc(NCCc2ccc(OC(F)(F)F)cc2)cc(N2CCCC(C(C)(C)C(=O)O)C2)n1 (stereo not shown) [Example 2, 2-(1-{2-Methoxy-6-[2-(4-trifluoromethoxy-phenyl)-ethylamino]-pyrimidin-4-yl}-piperidin-3-yl)-2-methyl-propionic acid]
1 nM | COc1nc(NCCc2ccc(Cl)cc2Cl)cc(N2CCCC(C(=O)NS(C)(=O)=O)C2)n1 (stereo not shown) [Example 11(a), N-(1-{6-[2-(2,4-Dichloro-phenyl)-ethylamino]-2-methoxy-pyrimidin-4-yl}-piperidine-3-carbonyl)-methanesulfonamide]
